This note sets out measurements from US20230365643A1, “PEPTIDE, AND COSMETIC COMPOSITION AND PHARMACEUTICAL COMPOSITION COMPRISING SAME” (SEOUL NATIONAL UNIVERSITY HOSPITAL, priority 2020, published 2023).

The structures appear in SMILES notation. ≈ marks a conversion by molar mass, not a printed value. Where a SMILES comes first, the peptide text is derived from it. [ ]: non-standard residue; d: D form.

Data set [1] in a line: Stability in mouse whole blood (LC-QTOF MS). The data set is classed as in vitro ADME. As to conditions: peptide 1 mg/ml; 0, 15, 30, 60, 120 minutes; compared to P5 control (FIG. 3). The method, then: Mouse whole blood was treated with peptide (1 mg/ml) and reacted for 0, 15, 30, 60, and 120 minutes, followed by analyzing the peptides remaining as LC-QTOF MS.
A short description of data set [2]: Determination of solubility. The data set is classed as physicochemical. On the procedure: To 5 mg of each of the peptides synthesized by the above method, a small amount of water or butylene glycol was added to measure solubility.
A further data set concerns C57BL/6 mice. As to the kind of experiment: Hair growth promoting efficacy in mice. The data set is classed as in vivo, mouse. As to conditions: lower back skin, once a day, after about 4 weeks; P5N 0.1 mM, P5 0.05 and 0.1 mM, MNX 3% (FIG. 11). An excerpt:
It is known that all the hairs of a mouse go through a process in which the hair enters the resting phase at 7 to 8 weeks of age and is converted back to the growing phase. Accordingly, the effect of the peptide of the present invention on the growth phase inducing process was confirmed using C57BL/6 mice. Specifically, 3% of minoxidil (MNX), which is commonly used as a treatment for hair loss and hair growth, on the skin of the lower back of the mouse, the existing adiponectin-derived peptide […] NO: 2), […] and 0.1 mM), and the present peptide […] NO: 2)-NH2) were applied at 0.1 mM concentration, respectively, once a day. Thereafter, hair growth was investigated. As a result, in the group treated with the peptide of the present invention as in the positive controls, it was confirmed […], after about 4 weeks, a proportion of the region where hair was grown in the growth phase among the region where hair was first removed is increased (FIG. 11).

A further data set deals with sensitive skin. As to the kind of experiment: Sensitive skin improvement, double-blind application study (lactate test, biopsy). It is filed as in vivo, human. As to conditions: for proportion of test group improved from sensitive skin to non-sensitive skin: 0.01%, 27 persons per group. The text has this:
In order to classify patients with sensitive skin, a double-blind organ application study was executed by conducting the lactate puncture test (Contact Dermatitis 2010; 62: 137-49), which is the most widely used and known reliable test for diagnosis of sensitive skin (a total of 54 persons, the peptide of the present invention PSN: GLYYF(SEQ ID NO: 2)-NH2 (APNSN) 0.01% vs control (placebo), 27 persons per application group). From the volunteers who agreed to the biopsy (peptide PSN: GLYYF(SEQ ID NO: 2)-NH2 (APNSN) of the present invention 0.01% vs control material (placebo), 8 persons per application group), the skin tissues at the facial baseline and the skin tissues after 8 weeks application were obtained from total 4 sites (for 2 sites per each) by 2 mm punch. For the obtained skin tissues, quantitative PCR analysis and immunohistochemistry were performed for sensitive skin-related genes and markers including adiponectin. […] Further, at the second visit, it could be seen that 29.6% of the test group was improved from the sensitive skin to the non-sensitive skin. […] There was no significant difference between the above two groups (p=0.327, fisher's exact test). Further, at the 3rd visit, the initial sensitive skin improved to non-sensitive skin in 48.1% of the test group, whereas only 14.8% of the control improved to non-sensitive skin, which is the same as at the 2nd visit. […] Further, since the expression of adiponectin was reduced in the patients having sensitive skin, a change in adiponectin gene expression after APNSN treatment could be an important indicator of sensitivity improvement. Therefore, as a result of confirming the expression of adiponectin, the sub-signaling factor P-AMPK of adiponectin and the sensitivity inducing factor TRPV1 (FIG. 10) through biopsy, the expression adiponectin and P-AMPK was increased after application in the test group containing APNSN, whereas the expression of TRPV1 was decreased. […] On the other hand, there was no statistically significant change in the expression of adiponectin in the control after application of the control material.

Setting [3] is: water : butylene glycol mixture, Solvent H2O: BG, mixed solvent.
Where [4] appears, read: Solvent BG (butylene glycol), single solvent.
Setting [5] is: biopsy after application (FIG. 10).

With `CC(C)C[C@H](N)C(=O)N[C@@H](Cc1ccc(O)cc1)C(=O)N[C@H](Cc1ccc(O)cc1)C(=O)N[C@@H](Cc1ccccc1)C(=O)O` [Peptide P4-4, LYyF (SEQ ID NO: 1)] (H-LY[dY]F-OH; N-terminus assumed), in data set [1], the “stability (peptides remaining)” value is listed as “improved stability”.

In general, solubility refers to the dissolved amount per volume that the medium holds. `CC(C)C[C@H](N)C(=O)N[C@@H](Cc1ccc(O)cc1)C(=O)N[C@@H](Cc1ccc(O)cc1)C(=O)N[C@H](Cc1ccccc1)C(=O)O` [Peptide P4-5, LYYf (SEQ ID NO: 1)] (H-LYY[dF]-OH; N-terminus assumed) showed a solubility in data set [2] (water, Solvent H2O, single solvent) of 2.5 mg/mL (≈ 4.13 mM).

As to `CC(C)C[C@@H](N)C(=O)N[C@@H](Cc1ccc(O)cc1)C(=O)N[C@@H](Cc1ccc(O)cc1)C(=O)N[C@@H](Cc1ccccc1)C(N)=O` [Peptide P4-6, lYYF (SEQ ID NO: 1)-NH2] (H-[dL]YYF-NH2), in data set [2] (setting [3]), the solubility came out at 4 mg/mL (≈ 6.63 mM).

Consider `CC(C)C[C@H](N)C(=O)N[C@@H](Cc1ccc(O)cc1)C(=O)N[C@@H](Cc1ccc(O)cc1)C(=O)N[C@H](Cc1ccccc1)C(N)=O` [Peptide P4-9, LYYf (SEQ ID NO: 1)-NH2] (H-LYY[dF]-NH2), for which the solubility in data set [2] (setting [3]) turned out to be 4 mg/mL (≈ 6.63 mM).

As for `CC(C)C[C@H](NC(=O)CN)C(=O)N[C@@H](Cc1ccc(O)cc1)C(=O)N[C@@H](Cc1ccc(O)cc1)C(=O)N[C@@H](Cc1ccccc1)C(=O)O` [Peptide P5, GLYYF (SEQ ID NO: 2), reference compound], in the data set with C57BL/6 mice, the “proportion of the region where hair was grown in the growth phase” value is recorded as “increased”. For the same molecule, the solubility in data set [2] (ethanol : propylene glycol mixture, Solvent EtOH: PG (propylene glycol), mixed solvent) is 1 mg/mL (≈ 1.51 mM).

With `CC(C)C[C@@H](NC(=O)CN)C(=O)N[C@@H](Cc1ccc(O)cc1)C(=O)N[C@@H](Cc1ccc(O)cc1)C(=O)N[C@@H](Cc1ccccc1)C(=O)O` [Peptide P5-1, GlYYF (SEQ ID NO: 2)], in data set [2] (setting [4]), the concentration in solution (solubility) came to 3 mg/mL (≈ 4.53 mM).

Regarding `CC(C)C[C@H](NC(=O)CN)C(=O)N[C@@H](Cc1ccc(O)cc1)C(=O)N[C@H](Cc1ccc(O)cc1)C(=O)N[C@@H](Cc1ccccc1)C(=O)O` [Peptide P5-3, GLYyF (SEQ ID NO: 2)], in data set [2] (setting [3]), the solubility was found to be 3 mg/mL (≈ 4.53 mM).

In the case of `CC(C)C[C@H](NC(=O)CN)C(=O)N[C@@H](Cc1ccc(O)cc1)C(=O)N[C@@H](Cc1ccc(O)cc1)C(=O)N[C@H](Cc1ccccc1)C(=O)O` [Peptide P5-4, GLYYf (SEQ ID NO: 2)], the concentration in solution in data set [2] (setting [4]) (solubility) was 3 mg/mL (≈ 4.53 mM).

Consider `CC(C)C[C@H](NC(=O)CN)C(=O)N[C@@H](Cc1ccc(O)cc1)C(=O)N[C@@H](Cc1ccc(O)cc1)C(=O)N[C@@H](Cc1ccccc1)C(N)=O` [Peptide P5-5, GLYYF (SEQ ID NO: 2)-NH2], for which the “proportion of the region where hair was grown in the growth phase” value in the data set with C57BL/6 mice was “increased”. In addition, the “proportion of test group improved from sensitive skin to non-sensitive skin” value in the data set on sensitive skin (2nd visit (4 weeks after application)) is given as 29.6%. Moreover, in the data set on sensitive skin (3rd visit (8 weeks after application)), the “proportion of test group improved from sensitive skin to non-sensitive skin” value is reported as 48.1%. Besides, the “sensitive skin to non-sensitive skin in lactic acid test” value in the data set on sensitive skin (2nd and 3rd visit (FIG. 9)) was “significantly improved”. Besides, in the data set on sensitive skin (setting [5]), the “expression of P-AMPK” value is listed as “increased”, the “expression of TRPV1” value is recorded as “decreased” and the expression of adiponectin entry was “increased”. The “increase of expression of adiponectin compared to before application” value in the data set with sensitive skin (twice a day for 8 weeks, biopsy) is reported as “more than 4 times”. Besides, in data set [1], the “stability (peptides remaining)” value was “improved stability”.

For `CC(C)C[C@H](NC(=O)CN)C(=O)N[C@@H](Cc1ccc(O)cc1)C(=O)N[C@H](Cc1ccc(O)cc1)C(=O)N[C@@H](Cc1ccccc1)C(N)=O` [Peptide P5-8, GLYyF (SEQ ID NO: 2)-NH2], the solubility in data set [2] (setting [4]) came to 3 mg/mL (≈ 4.54 mM).
